Results taken from patent US20230126310A1 (priority 2020, published 2023).
Where a name gives a salt, the structure may show the parent alone. Read-outs that look alike come from different tables or passages of the source.

Experiments:
SARS-CoV-2 [1] = conditions: 10 µM
SARS-CoV-2 [2] = experiment: microbe, parasite or virus in culture; conditions: Severe acute respiratory syndrome coronavirus 2, Caco-2, 48 h; for inhibition at 10 µM: read-out: % Inh. (% Inhibition of SARS-CoV-2)

Compound | % Inh. (% Inhibition of SARS-CoV-2) (SARS-CoV-2 [1]) [%] | inhibition at 10 µM (SARS-CoV-2 [2]) [%] | also measured
O=C1NC(=O)c2cc(Nc3ccc(F)cc3)c(Nc3ccc(F)cc3)cc21 [CGP-53353] | 86.1 |  | 
CCC(C)C1O[C@]2(C=C[C@@H]1C)C[C@@H]1CC(C/C=C(\C)[C@@H](OC3C[C@H](OC)[C@@H](OC4C[C@H](OC)[C@@H](O)[C@H](C)O4)[C@H](C)O3)[C@@H](C)/C=C/C=C3\COC4[C@H](O)C(C)=CC(C(=O)O1)[C@]34O)O2 (stereo partly drawn) [ABAMECTIN (avermectin B1a)] | 108.9 |  | 
Cc1ccc(NC(=O)C(C)C)cc1C1CCN(Cc2ccc(Oc3ccc(F)c(F)c3)cc2)CC1 [SNAP-94847] | 91.4 |  | 
CC[C@H](C)[C@@H]([C@@H](CC(=O)N1CCC[C@H]1[C@H](OC)[C@@H](C)C(=O)N[C@@H](Cc1ccccc1)c1nccs1)OC)N(C)C(=O)[C@@H](NC(=O)[C@H](C(C)C)N(C)C)C(C)C [Dolastin-10] | 64.3 |  | 
CNC(=O)c1cccc(NC(=O)N2CCC(Oc3ccccc3Cl)CC2)c1 [A-939572] | 78.8 |  | 
NC1(Cc2ccc(Cl)cc2)CCN(c2ncnc3[nH]ccc23)CC1 [CCT128930] | 86.7 |  | 
COc1ccc2nc3c(c(N)c2c1)CCCC3 [7-methoxytacrine] | 58.7 |  | 
COc1cc(Br)c(Nc2nc(-c3c(C)nc4ncccn34)cs2)c(Br)c1 [PTC-209] | 103.6 |  | 
N#Cc1ccc(N2N=C3c4ccc(C(=O)O)cc4CC[C@@H]3[C@@H]2C2CCCC2)cc1Cl [PF-03882845] | 58.6 |  | 
Cc1cc(N2CCOCC2)ccc1Nc1nc(NC2CCCCC2)c2[nH]cnc2n1 [MPI-0479605] | 61.2 |  | 
C[n+]1c2cc(N)ccc2cc2ccc(N)cc21.[Cl-] [ACRIFLAVINIUM HYDROCHLORIDE] |  |  | % Inh. (% Inhibition of SARS-CoV-2) (SARS-CoV-2 [1]; HYDROCHLORIDE): 99.5%; % Inh. (% Inhibition of SARS-CoV-2) (SARS-CoV-2 [1]; listed as Acriflavine hydrochloride, HYDROCHLORIDE): 69.4%
OC12C3C4CC5C6C4C1C6C(C53)N2CCc1cccc(F)c1 (stereo not drawn) [TC1] | 53.2 |  | 
CCN(CC)CCCCNc1ncc2cc(-c3c(Cl)cccc3Cl)c(NC(=O)NC(C)(C)C)nc2n1 [PD-161570] | 108.1 |  | 
CC(C)c1c2cc(-c3ccnc(NC4CCC(NC5CCOCC5)CC4)n3)ccc2nn1C (stereo not drawn) [LY2857785] | 89.1 |  | 
Cc1ccc(CC2(O)CCN(CCOc3ccc(O)cc3)CC2)cc1 [CO-101244] | 60.2 |  | 
NI-57 | 78.3 |  | 
Cc1nc(NC(=O)N2CCC[C@H]2C(N)=O)sc1-c1csc(C(C)(C)C)n1 [A66] | 54.4 |  | 
CC(C)(C)c1cc(O)c(C(C)(C)C)cc1O [BHQ] | 50.6 |  | 
COc1ccc2nc3cc(Cl)ccc3c(Nc3cc(CN4CCCC4)c(O)c(CN4CCCC4)c3)c2n1.O=P(O)(O)O.O=P(O)(O)O.O=P(O)(O)O.O=P(O)(O)O [PYRONARIDINE TETRAPHOSPHATE] | 80.6 |  | 
COC(=O)Nc1ccc(-c2nc(N3CCOCC3)c3cnn(C4CCN(C(=O)OC)CC4)c3n2)cc1 [WYE-354] | 89.9 |  | 
CSc1ccccc1Nc1nc(N2CCNCC2)nc2c(NCC3CC3)ncnc12 [KHK-IN-1 (hydrochloride)] | 71.8 |  | 
COc1ccc2[nH]c3c(-c4cccc5ccccc45)nccc3c2c1 [SP-141] | 68.6 |  | 
CN([C@@H](Cc1ccc(OS(=O)(=O)c2cccc3cnccc23)cc1)C(=O)N1CCN(c2ccccc2)CC1)S(=O)(=O)c1cccc2cnccc12 [KN-62] | 96.5 |  | 

Compound | % Inh. (% Inhibition of SARS-CoV-2) (SARS-CoV-2 [1]) [%] | inhibition at 10 µM (SARS-CoV-2 [2]) [%] | also measured
O=CC=Cc1ccccc1 [cinnamaldehyde] |  | 62.3 | 
CC[C@@]1(O)C(=O)OCc2c1cc1n(c2=O)Cc2cc3ccccc3nc2-1 [camptothecin] |  | 81.8 | 
Clc1ccc(C(Cn2ccnc2)OCc2ccsc2Cl)c(Cl)c1 (stereo not drawn) [TIOCONAZOLE] |  | 50.6 | 
N#CC1(c2ccc(NC(=O)c3cccnc3NCc3ccncc3)cc2)CCCC1 [Apatinib mesylate] |  | 70.9 | 
C[S+]([O-])CCCCN=C=S (stereo not drawn) [sulforaphane] |  | 94.2 | 
C[C@H]1C[C@H]2[C@@H]3CCC4=CC(=O)C=C[C@]4(C)[C@@]3(F)[C@@H](O)C[C@]2(C)[C@@]1(O)C(=O)CO [BETAMETHASONE] |  | 50.6 | 
Clc1ccc(C(Cn2ccnc2)OCc2ccc(Sc3ccccc3)cc2)c(Cl)c1 (stereo not drawn) [Fenticonazole nitrate] |  | 105 | 
NC(=O)N1C(=O)/C(=C(\O)c2cccs2)c2cc(Cl)ccc21 [tenidap] |  | 75.2 | 
COc1ccc(-n2nc(C(N)=O)c3c2C(=O)N(c2ccc(N4CCCCC4=O)cc2)CC3)cc1 [APIXABAN] |  | 78 | 
Clc1ccc(CCC(Cn2ccnc2)Sc2c(Cl)cccc2Cl)cc1 (stereo not drawn) [BUTOCONAZOLE] |  | 70.6 | 
CNCCCOc1cc(F)c(-c2c(Cl)nc3ncnn3c2N[C@@H](C)C(F)(F)F)c(F)c1 [Cevipabulin] |  | 53.6 | 
Cc1ccc(Oc2ccccc2-c2csc(N=C3NCCCN3)n2)c(C)c1 [Abafungin] |  | 92.9 | 
CCCCCCCCCCCCCCCC[N+](C)(C)Cc1ccccc1 [Benzyldimethylhexadecylammonium chloride hydrate] |  | 57 | 
Cc1nc(Nc2ccc(F)cc2)nc(N2CCc3ccccc3C2C)c1C (stereo not drawn) [Revaprazan Hydrochloride] |  | 90.9 | 
Cc1nc(C#Cc2ccnc(Cl)c2)c(C)n1-c1ccc(F)cc1 [Basimglurant] |  |  | IC50 (SARS-CoV-2 [2]): 25.2 µM; IC50 (SARS-CoV-2 [2]; read-out: pIC50 (converted)): 25.1 µM
O=C1c2cccc3c2[C@H](CCC3)CN1[C@@H]1CN2CCC1CC2 [Palonosetron HCl] |  | 57.4 | 
CCCn1c(=O)c2[nH]c(-c3ccccc3)nc2n(CCC)c1=O [1,3-dipropyl-8-phenylxanthine] |  | 57.2 | 
CN1CCc2cc3c(cc2C1O)OCO3 (stereo not drawn) [HYDRASTININE HYDROCHLORIDE] |  | 56.3 | 
O=c1[nH]c2ccccc2n1C1CCN(CCCC(c2ccc(F)cc2)c2ccc(F)cc2)CC1 [PIMOZIDE] |  | 94 | 
CC(C)(C)NC[C@H](O)COc1cccc2c1CCCC2=O [levobunolol] |  | 64.5 | 
CCN(CC)Cc1cc(Nc2ccnc3cc(Cl)ccc23)ccc1O [AMODIAQUINE DIHYDROCHLORIDE] |  | 78.8 | 
c1ccc(C(O[C@@H]2CCCN(CCc3ccc4c(c3)OCO4)C2)c2ccccc2)cc1 [zamifenacin] |  | 58.3 | 
CCN(CC)CCO[C@H]1CC[C@@]2(C)C(=CC[C@@H]3[C@@H]2CC[C@]2(C)C(=O)CC[C@@H]32)C1 [U-18666A] |  | 77.4 | 

Compound | % Inh. (% Inhibition of SARS-CoV-2) (SARS-CoV-2 [1]) [%] | inhibition at 10 µM (SARS-CoV-2 [2]) [%] | also measured
CC(O)COC[C@H]1O[C@@H]2O[C@H]3[C@H](O)[C@@H](O)[C@@H](O[C@H]4[C@H](O)[C@@H](O)[C@@H](O[C@H]5[C@H](O)[C@@H](O)[C@@H](O[C@H]6[C@H](O)[C@@H](O)[C@@H](O[C@H]7[C@H](O)[C@@H](O)[C@@H](O[C@H]8[C@H](O)[C@@H](O)[C@@H](O[C@H]1[C@H](O)[C@H]2O)O[C@@H]8COCC(C)O)O[C@@H]7COCC(C)O)O[C@@H]6COCC(C)O)O[C@@H]5COCC(C)O)O[C@@H]4COCC(C)O)O[C@@H]3COCC(C)O (stereo partly drawn) [hydroxypropyl-beta-cyclodextrin] |  | 56.5 | 
CCOC(=O)Nc1cc2c(c(N)n1)N=C(c1ccccc1)[C@H](C)N2 [mivobulin] |  | 65 | 
C/C(=N\NC(=S)NNC(=S)Nc1ccccc1Cl)c1ccccn1 [N-(2-chlorophenyl)-2-({(2E)-2-[1-(2-pyridinyl)ethylidene]hydrazino}carbothioyl)hydrazinecarbothioamide] |  | 101 | 
O=C(NO)c1cnc(N2CCN(S(=O)(=O)c3ccc4ccccc4c3)CC2)nc1 [R306465] |  | 57.3 | 
O=C(Cn1ccnc1[N+](=O)[O-])NCCO [etanidazole] |  | 57.3 | 
NC(N)=NCc1cccc(I)c1 [iobenguane] |  | 86.9 | 
Cc1nc(Nc2ncc(C(=O)Nc3c(C)cccc3Cl)s2)cc(N2CCN(CCO)CC2)n1 [Dasatinib] |  | 52.7 | 
Nc1ccc2cc3ccc(N)cc3nc2c1 [PROFLAVINE HEMISULFATE] |  | 95.8 | IC50 (SARS-CoV-2 [2]): 26.7 µM; IC50 (SARS-CoV-2 [2]; read-out: pIC50 (converted)): 26.9 µM
CN(C)CC[C@H](CSc1ccccc1)Nc1ccc(S(=O)(=O)NC(=O)c2ccc(N3CCN(Cc4ccccc4-c4ccc(Cl)cc4)CC3)cc2)cc1[N+](=O)[O-] [ABT-737] |  | 63.1 | 
COc1ccc(Cc2nccc3cc(OC)c(OC)cc23)cc1OC [PAPAVERINE HYDROCHLORIDE] |  |  | IC50 (SARS-CoV-2 [2]): 0.95 µM; IC50 (SARS-CoV-2 [2]; read-out: pIC50 (converted)): 0.955 µM
O=C(Nc1cc(Cl)cc(Cl)c1O)c1c(O)c(Cl)cc(Cl)c1Cl [OXYCLOZANIDE] |  | 94.4 | 
Nc1ccccc1C(=O)O [anthranilic-acid] |  | 50 | 
Nc1cc(C(F)(F)F)c(-c2nc(N3CCOCC3)nc(N3CCOCC3)n2)cn1 [Bimiralisib] |  | 97.2 | 
COC(=O)C1=C(C)NC(C)=C(C(=O)NCCCN2CCC(c3ccccc3)(c3ccccc3)CC2)C1c1ccc([N+](=O)[O-])cc1 (stereo not drawn) [SNAP-5089] |  | 72.6 | 
OCCOc1ccc(/C(=C(/CCCl)c2ccccc2)c2ccccc2)cc1 [Ospemifene] |  | 52.9 | 
NCCC(=O)N[C@@H](Cc1cnc[nH]1)C(=O)O [Carnosine] |  | 94.3 | 
c1ccc(-c2ccc(C(c3ccccc3)n3ccnc3)cc2)cc1 (stereo not drawn) [BIFONAZOLE] |  | 70.8 | 
C[C@H]1O[C@@H](O[C@H]2[C@@H](O)C[C@H](O[C@H]3[C@@H](O)C[C@H](O[C@H]4CC[C@@]5(C)[C@H](CC[C@@H]6[C@@H]5C[C@@H](O)[C@]5(C)[C@@H](C7=CC(=O)OC7)CC[C@]65O)C4)O[C@@H]3C)O[C@@H]2C)C[C@H](O)[C@@H]1O [DIGOXIN] |  | 70.6 | 
C[C@]12CC[C@H](O)C[C@H]1CC[C@@H]1[C@@H]2C[C@@H](O)[C@]2(C)[C@@H](C3=CC(=O)OC3)CC[C@]12O [Digoxigenin] |  | 66.8 | 
O=C(NC1CCN(CCCCC2(C(=O)NCC(F)(F)F)c3ccccc3-c3ccccc32)CC1)c1ccccc1-c1ccc(C(F)(F)F)cc1 [Lomitapide] |  | 77.4 | 
Cc1nc2ccccn2c(=O)c1CCN1CCC(C(=O)c2ccc(F)cc2)CC1 [pirenperone] |  | 64.1 | 
